Source: patent US12122728B2, “Use of substituted 2-thiazolines as nitrification inhibitors” (BASF SE, priority 2018, dated 2024)

Tested on: nitrification
Assay: Inhibition of nitrification in soil incubation test (ammonium and nitrate content after 14 days)
Details: 100 g soil, 10 mg ammoniumsulfate-N, 20° C., 0 and 14 days; for NI* @ 1%: compound at 1% of nitrogen N; for NI* @ 3%: compound at 3% (of nitrogen N); for NI* @ 0.3%: compound at 0.3% of nitrogen N
Description: The compounds of the invention have been tested as follows in terms of the inhibition of nitrification:
100 g soil is filled into 500 ml plastic bottles (e.g. soil sampled from the field) and is moistened to 50% water holding capacity. The soil is incubated at 20° C. for two weeks to activate the microbial biomass. 1 ml test solution, containing the compound in the appropriate concentration (usually 0.3 or 1% of nitrogen N), or DMSO and 10 mg nitrogen in the form of ammoniumsulfate-N is added to the soil and everything mixed well. Bottles are capped but loosely to allow air exchange. The bottles are then incubated at 20° C. for 0 and 14 days.
For analysis, 300 ml of a 1% K2SO4-solution is added to the bottle containing the soil and shaken for 2 hours in a horizontal shaker at 150 rpm. Then the whole solution is filtered through a filter (Macherey-Nagel Filter MN 807%). Ammonium and nitrate content is then analyzed in the filtrate in an autoanalyzer at 550 nm (Merck, AA11).
The inhibition (NI® a specified concentration) is calculated as follows: […]

SMILES | NI* @ 1% | NI* @ 3% | NI* @ 0.3%
COC(=O)CSC1=NCCS1 [Cmpd. 10, (2-Thiazolin-2-ylthio)-acetic acid, methyl ester] | 21.5 |  | 
CCSC1=NCCS1 [Cmpd. 9, 2-(Ethylthio)-2-thiazoline] | 22 |  | 
Cc1cc(Cl)ccc1SC1=NCCS1 [Cmpd. 7, 2-(4-Chloro-2-methylphenylthio)-2-thiazoline] | 25.7 | 48.8 | 
Br.O=C(CSC1=NCCS1)c1ccccc1 [Cmpd 6, 2-(2-Thiazolin-2-ylthio)-acetophenone, hydrobromide] | 31 | 53.9 | 21
CSC1=NCCS1 [Cmpd 1, 2-(Methylthio)-2-thiazoline] | 90.2 | 88 | 60.1
CC#CSC1=NCCS1 [Cmpd 2, 2-(Propynylthio)-2-thiazoline] |  | 76.3 | 
CC1(C)CSC(S)=N1 [Cmpd 4, 4,4-Dimethyl-2-mercaptothiazoline] |  | 57.5 | 
O=C(Nc1ccccc1)SC1=NCCS1 [Cmpd 5, 2-(Phenylaminocarbonylthio)-2-thiazoline] |  | 55 | 
CN(C)C(=S)SC1NCCS1 (stereo not drawn) [Cmpd. 11, 4,5-dihydro-3H-thiazol-2-yl N,N-dimethylcarbamodithioate] | 31.2 | 58.4 | 
CCNC(=O)SC1=NCCS1 [Cmpd. 8, 2-(Ethylaminocarbonylthio)-2-thiazoline] |  | 43.1 | 
SC1=NCCS1 [Cmpd 3, 2-Mercapto-2-thiazoline] | 47 | 83.5 | 
